pEC50: −log10 of the molar value.
Target: T1, Red cGull (Mus musculus, UniProt Q8CG03)
T1 construct: gene Pde5a; N-terminal mouse APP fragment (aa 190-286) fused for bacterial expression; purified on Ni-NTA from E. coli JM109(DE3)
Assay: fluorescence intensity dose-response, four-parameter logistic fit
Format: binding

T1 sequence (Q8CG03 164-298): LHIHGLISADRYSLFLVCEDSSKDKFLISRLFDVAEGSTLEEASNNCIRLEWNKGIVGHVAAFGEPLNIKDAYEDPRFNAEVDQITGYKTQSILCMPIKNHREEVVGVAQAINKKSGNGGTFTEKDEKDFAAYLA

With Nc1nc2c(ncn2[C@@H]2O[C@@H]3COP(=O)(O)O[C@H]3[C@H]2O)c(=O)[nH]1 [cGMP] the pEC50 was 6.48.

From article PMC9445041, “Development of a red fluorescent protein-based cGMP indicator applicable for live-cell imaging” (Communications Biology, 2022)
